In ChEMBL document CHEMBL3596104, “Covalent modifier-type aggregation inhibitor of amyloid-β based on a cyclo-KLVFF motif” (Bioorg Med Chem Lett, 2015):
Values belong to the compound of their own block, whether it stands above or below them. Active and inactive are the calls of the source. No cut-off for these calls is given here. Starred links: 1 amine or outer side, 2 acyl side, 3 side chain; linkers in the order of their positions; H or OH if unused. Non-standard residues stand in square brackets, D forms with d. Residues, ends and D or L forms follow the SMILES beside them. Phe(4-CF3-diazirinyl) = N[C@@H](Cc1ccc(C2(C(F)(F)F)N=N2)cc1)C(=O)O; X1 = O=C([C@H](Cc1ccc(C(O)C(F)(F)F)cc1)N[*:1])[*:2]; Dip = N[C@H](C(=O)O)C(c1ccccc1)c1ccccc1

Key:
[1] = target: Amyloid-beta precursor protein (Homo sapiens) (UniProt P05067); assay: Binding affinity to amyloid beta (1 to 42) (unknown origin) assessed as intensity of peak for compound-amyloid beta (1 to 16) adduct at 200 uM incubated for 10 mins irradiated with UV light for 10 mins by MALDI-TOF-MS method
Chain of Amyloid-beta precursor protein (Homo sapiens) (P05067 whole entry): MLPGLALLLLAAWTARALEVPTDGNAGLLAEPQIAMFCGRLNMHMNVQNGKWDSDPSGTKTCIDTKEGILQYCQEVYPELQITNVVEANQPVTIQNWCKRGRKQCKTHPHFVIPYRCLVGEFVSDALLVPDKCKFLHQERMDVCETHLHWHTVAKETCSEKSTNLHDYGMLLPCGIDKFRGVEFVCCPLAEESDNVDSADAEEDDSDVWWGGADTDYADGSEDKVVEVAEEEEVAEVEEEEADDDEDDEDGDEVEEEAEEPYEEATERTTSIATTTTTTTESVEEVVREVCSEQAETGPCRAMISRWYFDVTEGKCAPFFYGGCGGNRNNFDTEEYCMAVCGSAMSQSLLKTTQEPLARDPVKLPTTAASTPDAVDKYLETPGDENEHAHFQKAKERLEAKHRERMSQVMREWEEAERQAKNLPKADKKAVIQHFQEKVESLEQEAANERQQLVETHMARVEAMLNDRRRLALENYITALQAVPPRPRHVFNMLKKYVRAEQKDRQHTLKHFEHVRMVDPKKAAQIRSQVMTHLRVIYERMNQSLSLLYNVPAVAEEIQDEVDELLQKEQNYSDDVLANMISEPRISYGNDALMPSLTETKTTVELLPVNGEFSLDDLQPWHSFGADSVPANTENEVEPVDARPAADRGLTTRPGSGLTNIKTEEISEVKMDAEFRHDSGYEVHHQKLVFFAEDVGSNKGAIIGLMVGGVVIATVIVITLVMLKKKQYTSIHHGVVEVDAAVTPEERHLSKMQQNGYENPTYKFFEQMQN

[2] = target: Amyloid-beta precursor protein (Homo sapiens) (UniProt P05067); assay: Binding affinity to amyloid beta (1 to 42) (unknown origin) assessed as intensity of peak for compound-amyloid beta (17 to 28) adduct at 200 uM incubated for 20 to 120 mins irradiated with UV light for 10 mins by MALDI-TOF-MS method (reference value: 10%)
Insulin (Homo sapiens) = Insulin (Homo sapiens) (UniProt P01308); assay: Binding affinity to human insulin at 200 uM incubated for 2 hrs irradiated with UV light for 10 mins by MALDI-TOF-MS method
Chain of Insulin (Homo sapiens) (P01308 whole entry): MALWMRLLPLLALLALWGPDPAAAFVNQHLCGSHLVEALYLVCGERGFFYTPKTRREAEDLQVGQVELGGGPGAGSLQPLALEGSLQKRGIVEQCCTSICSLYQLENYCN

[3] = target: Amyloid-beta precursor protein (Homo sapiens) (UniProt P05067); assay: Binding affinity to amyloid beta (1 to 42) (unknown origin) assessed as intensity of peak for compound-amyloid beta (1 to 16) adduct at 200 uM incubated for 20 mins irradiated with UV light for 10 mins by MALDI-TOF-MS method (reference value: 10%)
[4] = target: Amyloid-beta precursor protein (Homo sapiens) (UniProt P05067); assay: Binding affinity to amyloid beta (1 to 42) (unknown origin) assessed as fluorescence intensity at 50 uM irradiated with UV light for 10 mins and measured up to 4 hrs by Thioflavin-T fluorescence assay (reference value: 100%)
[5] = target: Amyloid-beta precursor protein (Homo sapiens) (UniProt P05067); assay: Binding affinity to amyloid beta (1 to 16) (unknown origin) assessed as intensity of peak for compound-amyloid beta (1 to 16) adduct at 200 uM irradiated with UV light for 10 mins by MALDI-TOF-MS method
[6] = target: Amyloid-beta precursor protein (Homo sapiens) (UniProt P05067); assay: Binding affinity to amyloid beta (1 to 42) (unknown origin) assessed as compound-amyloid beta (4 to 11) adduct formation at Tyr10 residue at 200 uM incubated for 2 hrs irradiated with UV light for 10 mins by LC-MS/MS method
[7] = target: Amyloid-beta precursor protein (Homo sapiens) (UniProt P05067); assay: Binding affinity to amyloid beta (1 to 42) (unknown origin) assessed as intensity of peak for compound-amyloid beta (1 to 16) adduct at 200 uM incubated for 60 mins irradiated with UV light for 10 mins by MALDI-TOF-MS method (reference value: 10%)
[8] = target: Amyloid-beta precursor protein (Homo sapiens) (UniProt P05067); assay: Binding affinity to amyloid beta (1 to 42) (unknown origin) assessed as intensity of peak for compound-amyloid beta (1 to 16) adduct at 200 uM incubated for 120 mins irradiated with UV light for 10 mins by MALDI-TOF-MS method (reference value: 10%)
[9] = target: Amyloid-beta precursor protein (Homo sapiens) (UniProt P05067); assay: Binding affinity to amyloid beta (1 to 42) (unknown origin) assessed as intensity of peak for compound-amyloid beta (29 to 42) adduct at 200 uM incubated for 20 to 120 mins irradiated with UV light for 10 mins by MALDI-TOF-MS method (reference value: 10%)
[10] = target: Amyloid-beta precursor protein (Homo sapiens) (UniProt P05067); assay: Binding affinity to amyloid beta (1 to 42) (unknown origin) assessed as fluorescence intensity at 50 uM by Thioflavin-T fluorescence assay (reference value: 100%)
[11] = target: T1, Neuropeptide S (Homo sapiens) (UniProt P0C0P6); assay: Binding affinity to neuropeptide-S (unknown origin) at 200 uM incubated for 2 hrs irradiated with UV light for 10 mins by MALDI-TOF-MS method
T1 sequence (whole entry): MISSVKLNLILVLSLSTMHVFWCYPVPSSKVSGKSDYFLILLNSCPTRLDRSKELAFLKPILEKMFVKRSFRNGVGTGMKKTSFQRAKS

[12] = target: T2, Angiotensinogen (Homo sapiens) (UniProt P01019); assay: Binding affinity to angiotensin-4 (unknown origin) at 200 uM incubated for 2 hrs irradiated with UV light for 10 mins by MALDI-TOF-MS method
T2 sequence (whole entry): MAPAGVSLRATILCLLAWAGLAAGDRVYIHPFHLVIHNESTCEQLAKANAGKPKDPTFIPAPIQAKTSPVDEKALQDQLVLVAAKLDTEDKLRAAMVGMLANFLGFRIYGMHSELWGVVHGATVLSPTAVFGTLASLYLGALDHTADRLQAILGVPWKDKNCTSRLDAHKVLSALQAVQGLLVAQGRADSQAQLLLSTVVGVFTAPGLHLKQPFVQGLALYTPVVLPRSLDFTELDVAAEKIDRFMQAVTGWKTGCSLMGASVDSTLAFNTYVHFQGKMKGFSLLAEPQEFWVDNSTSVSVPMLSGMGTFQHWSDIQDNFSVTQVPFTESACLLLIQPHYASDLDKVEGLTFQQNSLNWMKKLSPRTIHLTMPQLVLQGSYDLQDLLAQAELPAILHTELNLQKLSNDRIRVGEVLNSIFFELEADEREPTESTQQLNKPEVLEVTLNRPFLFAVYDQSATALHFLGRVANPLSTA

[13] = target: Amyloid-beta precursor protein (Homo sapiens) (UniProt P05067); assay: Inhibition of fibril formation of amyloid beta (1 to 42) (unknown origin) at 50 uM incubated for 20 mins followed by irradiation with UV light for 10 mins and measured after 12 hrs by atomic force microscopy
[14] = target: Amyloid-beta precursor protein (Homo sapiens) (UniProt P05067); assay: Inhibition of amyloid beta (1 to 42) (unknown origin)-mediated cytotoxicity in rat PC12 cells treated with 20 mins compound pre-treated Abeta (1 to 42) followed by UV irradiation for 10 mins […] and measured after 48 hrs by WST8 assay; format: cell-based; details: PC-12
[15] = target: Amyloid-beta precursor protein (Homo sapiens) (UniProt P05067); assay: Inhibition of amyloid beta (1 to 42) (unknown origin)-mediated cytotoxicity in rat PC12 cells treated with 30 mins compound pre-treated Abeta (1 to 42) followed by UV irradiation for 10 mins […] and measured after 48 hrs by WST8 assay; format: cell-based; details: PC-12
[16] = target: Amyloid-beta precursor protein (Homo sapiens) (UniProt P05067); assay: Binding affinity to amyloid beta (1 to 42) (unknown origin) assessed as fluorescence intensity at 50 uM irradiated with UV light for 10 mins and measured after 60 mins by Thioflavin-T fluorescence assay (reference value: 100%)

- Activity [16]: 21%
Compound: CC(C)C[C@@H]1NC(=O)[C@H](CCCCN)NC(=O)[C@H](Cc2ccc(C(O)C(F)(F)F)cc2)NC(=O)[C@H](C(c2ccccc2)c2ccccc2)NC(=O)[C@H](C(C)C)NC1=O (stereo not given in full) (cyclo([Dip][X1]KLV))
- inhibition [15]: Dose-dependent effect

- Activity [10]: 68%
Compound: CC(C)C[C@H]1NC(=O)[C@@H](CCCCN)NC(=O)[C@@H](Cc2ccccc2)NC(=O)[C@@H](C(c2ccccc2)c2ccccc2)NC(=O)[C@@H](C(C)C)NC1=O

Continued, compound first:

Compound: CC(C)(C)OC(=O)N[C@@H](Cc1ccc(C2(C(F)(F)F)N=N2)cc1)C(=O)O
- Activity [1]: inactive

Compound: CC(C)C[C@@H]1NC(=O)[C@H](CCCCN)NC(=O)[C@H](Cc2ccc(C3(C(F)(F)F)N=N3)cc2)NC(=O)[C@H](C(c2ccccc2)c2ccccc2)NC(=O)[C@H](C(C)C)NC1=O (cyclo([Dip][Phe(4-CF3-diazirinyl)]KLV))
- Activity [2]: inactive
- Activity (Insulin (Homo sapiens)): inactive
- Activity [3]: 10%
- Activity [4]: 21%
- Activity [1]: Active
- Activity [5]: inactive
- Activity [6]: Active
- Activity [7]: 20%
- Activity [8]: 36%
- Activity [9]: inactive
- Activity [10]: 59%
- Activity [11]: inactive
- Activity [12]: inactive
- inhibition [13]: Active
- inhibition [14]: Dose-dependent effect

Compound: C[C@@H]1NC(=O)[C@H](CC(=O)O)NC(=O)[C@H](CCCNC(=N)N)NC(=O)[C@H](Cc2ccc(C3(C(F)(F)F)N=N3)cc2)NC(=O)[C@H](CCC(=O)O)NC1=O (cyclo(AE[Phe(4-CF3-diazirinyl)]RD))
- Activity [1]: inactive
